Data as given in patent publication US12492173B2, “Herbicidal substituted N-tetrazolyl aryl carboxamides” (Bayer Aktiengesellschaft, priority 2019, dated 2025).

Each compound was assayed on Lolium rigidum (assay: Pre-emergence herbicidal action, LOLRI). Settings: dosage 320 g/ha, scored visually after 3 weeks vs untreated controls (100% = plants have died).
Assay type: in vivo
Source text: 1. Pre-Emergence Herbicidal Action Against Harmful Plants Seeds of monocotyledonous and dicotyledonous weed plants and crop plants are laid out in sandy loam soil in wood-fiber pots and covered with soil. The compounds of the invention, formulated in the form of wettable powders (WP) or as emulsion concentrates (EC), are then applied to the surface of the covering soil in the form of an aqueous suspension or emulsion at a water application rate equating to 600 to 800 l/ha, with addition of 0.2% wetting agent. After the treatment, the pots are placed in a greenhouse and kept under good growth conditions for the trial plants. The damage to the test plants is scored visually after a test period of 3 weeks by comparison with untreated controls (herbicidal activity in percent (%): 100% activity=the plants have died, 0% activity=like control plants). […] The tables below illustrate, in an exemplary manner, the […] herbicidal action of the compounds according to the invention, the herbicidal activity being stated in percent. [table] In the experiments that follow, herbicidal action of numerous inventive compounds and the known compounds that are structurally closest from D1 (WO 2012/028579 A1) and D2 (WO 2018/202535 A1) were compared under the above-specified conditions by the pre-emergence and post-emergence method. The example numbers given in the tables relate to the compounds disclosed in the respective documents. In addition to the compounds disclosed in D1 and D2, the following compounds V-1 to V-14 that are encompassed by D1 or D2 but are not compounds specified therein were used in the comparative experiments: • V-1: 2-(methylsulfanyl)-3-(methylsulfinyl)-N-(1-methyl-1H-tetrazol-5-yl)-4-(trifluoromethyl)benzamide • V-2: 2-(methylsulfanyl)-3-(methylsulfonyl)-N-(1-methyl-1H-tetrazol-5-yl)-4-(trifluoromethyl)benzamide • V-3: 2,3-bis(ethylsulfanyl)-N-(1-methyl-1H-tetrazol-5-yl)-4-(trifluoromethyl)benzamide • V-4: 2-chloro-3-(ethylsulfanyl)-N-(1-methyl-1H-tetrazol-5-yl)-4-(trifluoromethyl)benzamide • V-5: 2-chloro-4-iodo-3-(methylsulfanyl)-N-(1-methyl-1H-tetrazol-5-yl)benzamide • V-6: 2-chloro-4-iodo-3-(methylsulfinyl)-N-(1-methyl-1H-tetrazol-5-yl)benzamide • V-7: 2-chloro-4-iodo-3-(methylsulfonyl)-N-(1-methyl-1H-tetrazol-5-yl)benzamide • V-8: 2-bromo-3-(methylsulfanyl)-N-(1-methyl-1H-tetrazol-5-yl)-4-(trifluoromethyl)benzamide • V-9: 2-bromo-3-(methylsulfinyl)-N-(1-methyl-1H-tetrazol-5-yl)-4-(trifluoromethyl)benzamide • V-10: 2-bromo-3-(methylsulfonyl)-N-(1-methyl-1H-tetrazol-5-yl)-4-(trifluoromethyl)benzamide • V-11: 2-bromo-3-(ethylsulfanyl)-N-(1-methyl-1H-tetrazol-5-yl)-4-(trifluoromethyl)benzamide • V-12: 2-bromo-3-(ethylsulfinyl)-N-(1-methyl-1H-tetrazol-5-yl)-4-(trifluoromethyl)benzamide • V-13: 2-bromo-3-(ethylsulfonyl)-N-(1-methyl-1-1H-tetrazol-5-yl)-4-(trifluoromethyl)benzamide • V-14: 2-cyclopropyl-3-(ethylsulfanyl)-N-(1-methyl-1H-tetrazol-5-yl)-4-(trifluoromethyl)benzamide Herbicidal Pre-Emergence Action: […]

Row | SMILES | herbicidal activity LOLRI
1 | COCC[S+]([O-])Cc1c(C(F)(F)F)ccc(C(=O)Nc2nnnn2C)c1Cl (racemic) [Example 1-306] | 90%
2 | Cn1nnnc1NC(=O)c1ccc(C(F)(F)F)c(C[S+]([O-])C2CC2)c1Cl (racemic) [Example 1-303] | 100%
3 | Cn1nnnc1NC(=O)c1ccc(C(F)(F)F)c(C[S+]([O-])CC(F)(F)F)c1Cl (racemic) [Example 1-312] | 90%
4 | CCn1nnnc1NC(=O)c1ccc(C(F)(F)F)c(CSCC(F)(F)F)c1Cl [Example 2-311] | 90%
5 | C=CCSCc1c(C(F)(F)F)ccc(C(=O)Nc2nnnn2CCC)c1Cl [Example 3-308] | 80%
6 | CCn1nnnc1NC(=O)c1ccc(I)c(C[S+](C)[O-])c1Cl (stereo not shown) [Example 2-363] | 100%
7 | CCCn1nnnc1NC(=O)c1ccc(C(F)(F)F)c(C[S+](C)[O-])c1SC (stereo not shown) [Example 3-162] | 90%
8 | Cn1nnnc1NC(=O)c1ccc(I)c(C[S+](C)[O-])c1Cl (racemic) [Example 1-363] | 100%
9 | Cn1nnnc1NC(=O)c1ccc(I)c(CS(C)(=O)=O)c1Cl [Example 1-364] | 80%
10 | CCn1nnnc1NC(=O)c1ccc(C(F)(F)F)c(C[S+]([O-])CC2CC2)c1Cl (stereo not shown) [Example 2-315] | 90%

Each compound was assayed on Stellaria media (assay: Pre-emergence herbicidal action, STEME). Settings: comparative experiment, 20 g of a.i./ha.
Assay type: in vivo
Design: key to Herbicidal action against STEME: % activity: 100 = plants have died, 0 = like control plants
How it was run: (§1)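 Herbicidal activity is expressed in percent, scored by eye after a 3-week greenhouse period, with 0% matching untreated plants and 100% meaning death. Compounds, as wettable powders or emulsion concentrates, are applied pre-emergence to the covering soil.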

Row | SMILES | Herbicidal action against STEME
11 | Cn1nnnc1NC(=O)c1ccc(I)c(C[S+](C)[O-])c1Cl (racemic) [Example 1-363] | 100
12 | Cn1nnnc1NC(=O)c1ccc(I)c(CS(C)(=O)=O)c1Cl [Example 1-364] | 90

Same assay, conditions: dosage 320 g/ha, scored visually after 3 weeks vs untreated controls (100% = plants have died)

Row | SMILES | herbicidal activity STEME
13 | COCC[S+]([O-])Cc1c(C(F)(F)F)ccc(C(=O)Nc2nnnn2C)c1Cl (racemic) [Example 1-306] | 100%
14 | Cn1nnnc1NC(=O)c1ccc(C(F)(F)F)c(C[S+]([O-])C2CC2)c1Cl (racemic) [Example 1-303] | 100%
15 | Cn1nnnc1NC(=O)c1ccc(C(F)(F)F)c(C[S+]([O-])CC(F)(F)F)c1Cl (racemic) [Example 1-312] | 100%
16 | CCn1nnnc1NC(=O)c1ccc(C(F)(F)F)c(CSCC(F)(F)F)c1Cl [Example 2-311] | 100%
17 | C=CCSCc1c(C(F)(F)F)ccc(C(=O)Nc2nnnn2CCC)c1Cl [Example 3-308] | 100%
18 | CCn1nnnc1NC(=O)c1ccc(I)c(C[S+](C)[O-])c1Cl (stereo not shown) [Example 2-363] | 100%
19 | CCCn1nnnc1NC(=O)c1ccc(C(F)(F)F)c(C[S+](C)[O-])c1SC (stereo not shown) [Example 3-162] | 100%
20 | Cn1nnnc1NC(=O)c1ccc(I)c(C[S+](C)[O-])c1Cl (racemic) [Example 1-363] | 100%
21 | Cn1nnnc1NC(=O)c1ccc(I)c(CS(C)(=O)=O)c1Cl [Example 1-364] | 100%
22 | CCn1nnnc1NC(=O)c1ccc(C(F)(F)F)c(C[S+]([O-])CC2CC2)c1Cl (stereo not shown) [Example 2-315] | 100%

The compounds below were run on Veronica persica (assay: Post-emergence herbicidal action, VERPE). Settings: Dosage 80 g/ha.
Assay type: in vivo
Design: key: % herbicidal action vs untreated; 100 = plants died, 0 = like control
How it was run: (§2)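 After sowing into sandy loam, plants grew 2 to 3 weeks under greenhouse conditions until one leaf, then got a spray of compound as aqueous suspension or emulsion. Roughly three weeks on, activity was estimated visually against untreated pots.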

Row | SMILES | herbicidal action VERPE
23 | COCC[S+]([O-])Cc1c(C(F)(F)F)ccc(C(=O)Nc2nnnn2C)c1Cl (racemic) [Example 1-306] | 90
24 | CCn1nnnc1NC(=O)c1ccc(C(F)(F)F)c(CSCC(F)(F)F)c1Cl [Example 2-311] | 100
25 | C=CCSCc1c(C(F)(F)F)ccc(C(=O)Nc2nnnn2CCC)c1Cl [Example 3-308] | 80
26 | CCn1nnnc1NC(=O)c1ccc(I)c(C[S+](C)[O-])c1Cl (stereo not shown) [Example 2-363] | 100
27 | Cn1nnnc1NC(=O)c1ccc(I)c(CS(C)(=O)=O)c1Cl [Example 1-364] | 100
28 | CCn1nnnc1NC(=O)c1ccc(C(F)(F)F)c(C[S+]([O-])CC2CC2)c1Cl (stereo not shown) [Example 2-315] | 100

Same assay, conditions: post-emergence, dosage 80 g/ha

Row | SMILES | herbicidal action VERPE
29 | Cn1nnnc1NC(=O)c1ccc(C(F)(F)F)c(C[S+]([O-])C2CC2)c1Cl (racemic) [Example 1-303] | 100%
30 | Cn1nnnc1NC(=O)c1ccc(C(F)(F)F)c(C[S+]([O-])CC(F)(F)F)c1Cl (racemic) [Example 1-312] | 90%
31 | CCCn1nnnc1NC(=O)c1ccc(C(F)(F)F)c(C[S+](C)[O-])c1SC (stereo not shown) [Example 3-162] | 100%
32 | Cn1nnnc1NC(=O)c1ccc(I)c(C[S+](C)[O-])c1Cl (racemic) [Example 1-363] | 100%

What follows are compounds tested on Hordeum murinum (assay: Pre-emergence herbicidal action, HORMU). Settings: dosage 320 g/ha, scored visually after 3 weeks vs untreated controls (100% = plants have died).
Assay type: in vivo
How it was run: as §1

Row | SMILES | herbicidal activity HORMU
33 | COCC[S+]([O-])Cc1c(C(F)(F)F)ccc(C(=O)Nc2nnnn2C)c1Cl (racemic) [Example 1-306] | 90%
34 | Cn1nnnc1NC(=O)c1ccc(C(F)(F)F)c(C[S+]([O-])C2CC2)c1Cl (racemic) [Example 1-303] | 100%
35 | Cn1nnnc1NC(=O)c1ccc(C(F)(F)F)c(C[S+]([O-])CC(F)(F)F)c1Cl (racemic) [Example 1-312] | 100%
36 | CCn1nnnc1NC(=O)c1ccc(C(F)(F)F)c(CSCC(F)(F)F)c1Cl [Example 2-311] | 80%
37 | C=CCSCc1c(C(F)(F)F)ccc(C(=O)Nc2nnnn2CCC)c1Cl [Example 3-308] | 80%
38 | CCn1nnnc1NC(=O)c1ccc(I)c(C[S+](C)[O-])c1Cl (stereo not shown) [Example 2-363] | 100%
39 | CCCn1nnnc1NC(=O)c1ccc(C(F)(F)F)c(C[S+](C)[O-])c1SC (stereo not shown) [Example 3-162] | 100%
40 | Cn1nnnc1NC(=O)c1ccc(I)c(C[S+](C)[O-])c1Cl (racemic) [Example 1-363] | 100%
41 | Cn1nnnc1NC(=O)c1ccc(I)c(CS(C)(=O)=O)c1Cl [Example 1-364] | 90%
42 | CCn1nnnc1NC(=O)c1ccc(C(F)(F)F)c(C[S+]([O-])CC2CC2)c1Cl (stereo not shown) [Example 2-315] | 100%

What follows are compounds tested on Cyperus esculentus (assay: Post-emergence herbicidal action, CYPES). Settings: Dosage 80 g/ha.
Assay type: in vivo
Design: key: % herbicidal action vs untreated; 100 = plants died, 0 = like control
How it was run: as §2

Row | SMILES | herbicidal action CYPES
43 | C=CCSCc1c(C(F)(F)F)ccc(C(=O)Nc2nnnn2CCC)c1Cl [Example 3-308] | 90

Same assay, conditions: post-emergence, dosage 80 g/ha

Row | SMILES | herbicidal action CYPES
44 | Cn1nnnc1NC(=O)c1ccc(C(F)(F)F)c(C[S+]([O-])C2CC2)c1Cl (racemic) [Example 1-303] | 80%

Each compound was assayed on Abutilon theophrasti (assay: Pre-emergence herbicidal action, ABUTH). Settings: comparative experiment, 20 g of a.i./ha.
Assay type: in vivo
Design: key to Herbicidal action against ABUTH: % activity: 100 = plants have died, 0 = like control plants
How it was run: as §1

Row | SMILES | Herbicidal action against ABUTH
45 | Cn1nnnc1NC(=O)c1ccc(I)c(C[S+](C)[O-])c1Cl (racemic) [Example 1-363] | 100

Same assay, conditions: dosage 320 g/ha, scored visually after 3 weeks vs untreated controls (100% = plants have died)

Row | SMILES | herbicidal activity ABUTH
46 | COCC[S+]([O-])Cc1c(C(F)(F)F)ccc(C(=O)Nc2nnnn2C)c1Cl (racemic) [Example 1-306] | 100%
47 | Cn1nnnc1NC(=O)c1ccc(C(F)(F)F)c(C[S+]([O-])C2CC2)c1Cl (racemic) [Example 1-303] | 100%
48 | Cn1nnnc1NC(=O)c1ccc(C(F)(F)F)c(C[S+]([O-])CC(F)(F)F)c1Cl (racemic) [Example 1-312] | 100%
49 | CCn1nnnc1NC(=O)c1ccc(C(F)(F)F)c(CSCC(F)(F)F)c1Cl [Example 2-311] | 100%
50 | C=CCSCc1c(C(F)(F)F)ccc(C(=O)Nc2nnnn2CCC)c1Cl [Example 3-308] | 100%
51 | CCn1nnnc1NC(=O)c1ccc(I)c(C[S+](C)[O-])c1Cl (stereo not shown) [Example 2-363] | 100%
52 | CCCn1nnnc1NC(=O)c1ccc(C(F)(F)F)c(C[S+](C)[O-])c1SC (stereo not shown) [Example 3-162] | 100%
53 | Cn1nnnc1NC(=O)c1ccc(I)c(C[S+](C)[O-])c1Cl (racemic) [Example 1-363] | 100%
54 | Cn1nnnc1NC(=O)c1ccc(I)c(CS(C)(=O)=O)c1Cl [Example 1-364] | 100%
55 | CCn1nnnc1NC(=O)c1ccc(C(F)(F)F)c(C[S+]([O-])CC2CC2)c1Cl (stereo not shown) [Example 2-315] | 100%
